Measurements: US11733243B2, “Use of acamprosate to modulate ERK1/2 activation in animal models for FXS and ASD and individuals diagnosed with FXS and ASD” (Indiana University Research and Technology Corporation, priority 2013, dated 2023)
Where “and” joins values, the source holds several entries; their conditions need not be identical. Equal entries are not always repeated. Entries after “also recorded” stand apart in the source; their conditions may differ.

How the values were obtained:
[1] = system: alcohol withdrawal associated anxiety; details: in vivo; cited from earlier work
[2] = system: extracellular dopamine; details: rats; dependent on glycine receptor activation; cited from earlier work
[3] = safety and adverse effects in the autistic disorder trial; assay type: in vivo, human; details: idiopathic ASD, nine patients, range 600-1,998 mg/day
Description: A 12-week single-blind, placebo-controlled trial of the effect of acamprosate in the treatment of 12 youths with autistic disorder aged 5 to 17 years was carried out. In order to pilot test use of acamprosate in youth with autism targeting core social impairment, was conducted. All subjects and their family members were blinded to treatment status. All subjects participated in a 2 week placebo-lead-in phase prior to 10 weeks of treatment with acamprosate. For this project, enteric coated commercially available 333 mg acamprosate pills were over-encapsulated and identical matching placebo manufactured for the project. Placebo-responders, defined by a Clinical Global Impressions Improvement scale (CGI-I) score of 1 “very much improved” or 2 “much improved” (ratings anchored to core social deficits) at week 2 were asked to exit the study. During active treatment with acamprosate, dosing was increased in 333 mg increments per week over the first six weeks of active treatment to a maximum dose of 1,332 mg/day (weight<5 60 kg) or 1,998 mg/day (weight>60 kg). During the final four weeks of active drug treatment, subjects were maintained on a stable highest tolerated (optimal) dose. The primary outcome measure was the clinician-rated CGI-I anchored to symptoms of social impairment. […]

[4] = system: sAPP; assay: plasma sAPP total ELISA pre- and post-acamprosate; assay type: in vivo, human
Text: For sAPP levels, the Test plasma samples should be measured soon after collection. […] Just before assay, we thawed the test samples at a low temperature and mixed them completely. The plasma samples should be diluted appropriately with the EIA buffer, if needed. Duplicate measurement of test samples and standard are recommended. We used test samples in neutral pH range, and avoided the contaminations of organic solvent that may affect the measurement. Regarding the standard to quantify levels of sAPP, we prepared a series of sAPP standards in EIA buffer by serial dilutions, from 0.39 ng/mL to 25 ng/mL.
The ELISA plate was pre-coated with anti-human APP (R12A1) mouse IgG (IBL). First, the wells for reagent blank was determined, and 100 μL each of “EIA buffer” or 10 mM NaHCO3 buffer was added into the wells. Likewise, wells were assigned for test sample blank, test sample and diluted standard. Then 100 μL each of test sample blank, test sample and dilutions of standard was added into the appropriate wells. The test sample included the plasma sample from each subject, which may vary from 5-25 μl, made up to 100 μL with the EIA buffer. Each pre-coated plates was incubated overnight at 4° C. after covering it tightly with a plate lid. The plate was kept onto a rocker with gentle shaking. The next day, each well of the pre-coated plate was vigorously washed with wash buffer containing 0.05% Tween20 in phosphate buffer. This was performed by filling each well with wash buffer, leaving the pre-coated plate laid for 15-30 seconds and removing wash buffer completely from the plate by snapping. This procedure was repeated five times. After removing the remaining liquid from all wells completely by snapping the plate onto paper towel, we added 100 μL of labeled antibody solution into the wells of test samples, diluted standard and test sample blank. HRP labeled anti-Human APP (R101A4) mouse IgG from IBL was used. The plate was incubated for 30 minutes at 4° C. after covering it with plate lid, and then washed the plate 5 times in the same manner as described before. To develop the color, 100 μL of the Chromogen (TMB solution) was adding into the wells, and the plate was incubated for 30 minutes at room temperature in the dark.
When the liquid started turning blue (by addition of the Chromogen), 100 μL of the Stop solution (1N H2SO4) was added into the wells. […] A plate reader was used and measurements were conducted at 450 nm against a reagent blank. […]
The first project enrolled 12 youth aged 5 to 17 years with fragile X syndrome and comorbid ASD in a 10-week open-label trial of acamprosate. […] Plasma sAPP total and sAPPα were determined separately in serum using the ELISA kit obtained from Immuno Biological Laboratories (IBL, Gumma, Japan). […]

[5] = system: GABA(A); details: animal studies; cited from earlier work
[6] = system: ERK; assay: striatum pERK/ERK in WT and fmr1 KO mice treated with acamprosate; assay type: in vivo; set-up: ERK / Total: unit not given here
Text: FIG. 4. Bar graph of pERK activity measured in WT and fmr1 KO mice treated with acamprosate
Referring now to FIG. 4. A summary of data collected using mouse models for ASD to measure the effect of acamprosate on the levels of ERK activity in wild-type and fmr1 (fragile X gene) Knock Out mice.

[7] = STRIATUM, KO Acam, individual mice, listed as Acam

## CC(=O)NCCCS(=O)(=O)O [Acamprosate, 3-Acetamidopropane-1-sulfonic acid]
[1]
  alcohol withdrawal associated anxiety effects: reduce alcohol withdrawal associated anxiety effects
[2]
  extracellular dopamine levels in the nucleus accumbens: elevates extracellular dopamine levels in the nucleus accumbens
[3]
  tolerability: well tolerated with no adverse effects leading to drug discontinuation or laboratory/vital sign abnormalities noted; also recorded: well tolerated with no adverse effects leading to drug discontinuation and no vital sign or safety laboratory changes noted
[4]; individual patients 1-6
  fractional change in sAPP(total)-CP from Baseline to Week 12: −0.8279 and −0.3066 and −0.0102 and −0.1029 and −0.437 and −0.544
[4]; individual patients 1-6, after treatment
  sAPP(total)-CP level, Week 12: 5.561 ng/mL and 25.16 ng/mL and 12.84 ng/mL and 8.077 ng/mL and 56.8 ng/mL and 7.547 ng/mL
[4]; pooled 15 participants (9 FXS, 6 idiopathic ASD), 1,054 mg/day, pre-treatment 32.6±38.3, p=0.01
  mean sAPP total post-treatment: 21.4 ± 32.3 ng/mL
[4]; six subjects, idiopathic ASD trial, baseline 34.7, p=0.02
  mean sAPP total at endpoint: 19.3 ng/mL
[5]
  action at GABA(A): exhibits GABA(A) agonism
[6]; [7]
  A = ERK/Total: 1.31 and 1.57 and 2.78 and 2.43 and 2.19 and 2.25 and 1.71
  ERK: 24161 and 32570 and 26811 and 27464 and 25163 and 21441 and 25808
  Total: 18506 and 20784 and 9659 and 11290 and 11468 and 9535 and 15062
  pERK: 26311 and 37905 and 34961 and 25699 and 25451 and 19381 and 25020
  pERK/A: 20152.78 and 24188.44 and 12595.14 and 10564.44 and 11599.26 and 8618.90 and 14602.11
[6]; STRIATUM, KO Acam, individual mice, listed as acamp
  pERK/A: 20152.78 and 24188.44 and 12595.14 and 10564.44 and 11599.26 and 8618.90 and 14602.11
[6]; STRIATUM, KO acamp, WT sal 14455.22, KO sal 21048.75, T Test 0.96 vs WT, 0.20 vs KO sal
  pERK (group mean of pERK/A): 14617.30
[6]; fmr1 knockout animals
  effect on ERK activation in fmr1 knockout animals: restores activated ERK to wild-type levels
